Assay results taken from patent US7932262B2 (Novartis AG, priority 2006, dated 2011).
Where two headings read alike, the source gives them in different places.

Columns and labels:
PDK1 kinase = molecular target: T1, PDK1 kinase (Homo sapiens, UniProt O15530); assay: PDK1 Kinase Alpha Screen Assay; type: biochemical; settings: read-out: PDK1 IC50
T1 sequence (O15530 1-556): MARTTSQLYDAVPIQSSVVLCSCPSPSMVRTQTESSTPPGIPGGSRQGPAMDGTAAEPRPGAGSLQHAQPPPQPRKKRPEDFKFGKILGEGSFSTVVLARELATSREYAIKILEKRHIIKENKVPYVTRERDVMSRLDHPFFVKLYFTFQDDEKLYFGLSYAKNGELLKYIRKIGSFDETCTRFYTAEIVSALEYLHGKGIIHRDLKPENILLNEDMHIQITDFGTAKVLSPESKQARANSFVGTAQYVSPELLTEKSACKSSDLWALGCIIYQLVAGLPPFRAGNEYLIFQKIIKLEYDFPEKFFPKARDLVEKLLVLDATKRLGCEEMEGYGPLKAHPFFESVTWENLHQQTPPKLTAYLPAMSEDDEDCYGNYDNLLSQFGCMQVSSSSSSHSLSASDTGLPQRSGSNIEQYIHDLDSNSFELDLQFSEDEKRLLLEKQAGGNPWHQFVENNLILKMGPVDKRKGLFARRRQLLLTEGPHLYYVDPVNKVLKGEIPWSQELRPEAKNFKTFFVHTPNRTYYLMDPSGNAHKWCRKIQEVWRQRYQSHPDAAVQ
Protocol: 1. PDK1 Kinase Alpha Screen Assay
Reagents/Concentrations: The PDK1-4 peptide substrate, biotin-[…]-NH2, was purchased from the Tufts University Core Facility. The final concentration of PDK1-4 peptide substrate was 50 nM The ATP substrate (Adenosine-5′-triphosphate) was purchased from Roche Diagnostics. The final concentration of ATP substrate was 10 uM. Phospho-(Ser/Thr) PKA substrate antibody was purchased from Cell Signaling Technology. The final concentration of antibody was 0.3 mg/ml. The Alpha Screen Protein A detection kit containing donor and acceptor beads was purchased from PerkinElmer Life Sciences. The final concentration of both donor and acceptor beads was 25 μg/ml. Alpha Screen was used for detection. The biotinylated-PDK1-4 peptide was phosphorylated by PDK1 kinase using the ATP substrate. The biotinylated-PDK1-4 peptide substrate was bound to the streptavidin coated donor bead. The antibody was bound to the protein A coated acceptor bead. The antibody bound to the phosphorylated form of the biotinylated PDK-1 peptide substrate, bringing the donor and acceptor beads into close proximity. Laser irradiation of the donor bead at 680 nm generated a flow of short-lived singlet oxygen molecules. When the donor and acceptor beads were in close proximity, the reactive oxygen generated by the irradiation of the donor beads initiated a luminescence/fluorescence cascade in the acceptor beads. This process led to a highly amplified signal with output in the 530-620 nm range. Assays were carried out in 50 mM Tris, pH=7.5, 10 mM MgCl2, 0.1% Bovine Serum Albumin, 0.01% Tween-20, 2 mM Dithiolthreitol, 2.5% Dimethyl Sulfoxide. Reactions were stopped by adding 50 mM Tris, pH=7.5, 90 mM EDTA, 0.1% Bovine Serum Albumin, 0.01% Tween-20.
Procedure: To 10 μl of PDK1-4 peptide, 0.5 μl of test compound in dimethyl sulfoxide is added. PDK1 kinase and ATP are mixed. 10 μl of the PDK1 kinase/ATP mix is added to start the reaction. The reaction is allowed to proceed for 3-18 hours. The reactions are stopped by adding 10 μl of the EDTA-containing stop buffer. Beads are mixed with antibody. 25 μl of the bead/antibody mix is added to the stopped reactions. Plates are incubated at room temperature overnight to allow for detection development before being read. The assay is run is a 384-well format. […]

PC-3 cells = assay: Cell Proliferation Assay (Cell Titer Glo), PC-3 cell line; type: cell-based
Protocol: IV. Cell Proliferation Assay Protocol:
A2780, PC-3, or PC3MM cells were seeded at 1000 cells/well in 100 μL/well (10.000 cells/mL) growth media in 96-well plates. Cells were allowed to adhere to the bottom of plates for 3-5 hours in a 37° C. 5% CO2 incubator. Compounds were dissolved in DMSO and then transferred to the cell plates. The cells were incubated with the compounds for 3 days in a 37° C. 5% CO2 incubator. The growth medium containing the compounds was then removed from the cells and fresh medium was added, followed by 100 μL of Cell Titer Glo assay reagent (Promega). This mixture was shaken for 1 minute and then incubated without shaking for 10 minutes. Activity determinations for the compounds were made by detection on a Trilux Instrument.
V. Cell Proliferation Assay Protocol: PC-3 Cell Line
PC-3 cells were seeded at 1000 cells/well in 100 μL/well (10.000 cells/mL) along with growth media into black-walled, clear bottom 96-well plates. The cells were allowed to adhere to the bottom of the plate for 3-5 hours in a 37° C. 5% CO2 incubator.
Test compounds were diluted to 500× in DMSO. The DMSO solutions of six of the compounds were transferred to the cells in the 96 well round bottom plate, column 2, row B-F. A 1:3 serial dilution of each compound was carried out. The serial dilution comprised adding 20 μL of DMSO to the wells containing the compounds and doing a 1:3 dilution across the plate from columns 2-10. Column 11 contained only DMSO. The serial dilution was carried out using a BioMek 2000 protocol “CP Serial Dilution using 250 μL tips” or “Proliferation Compound” (if using 20 μL tips).
To a 96 deep well block, columns 2-11 rows B-F, was transferred 500 μL of growth medium. Using the FX protocol “HH_CellAssay—2 μL to 500 μL”, 2 μL of compound from each cell of the compound plate was transferred to the corresponding cell in the 96 deep well block containing 500 μL of growth medium. The instrument was programmed to dilute the compound in growth medium and then transfer 100 μL of that mixture to cell plates containing cells. The cell plates, to which test compounds had been added, were incubated for 3 days at 37° C. Following the incubation, the medium was removed and replaced with fresh medium. Cell Titer Glo (100 μL) was added to each well and the plate was shaken for 1 minute and then incubated without shaking for 10 minutes. The plates were then read using a Trilux instrument.

[1] = Homo sapiens, PC-3, 72 h, PC-3 cells, 3 days incubation, read-out: CP EC50 PC3
[2] = Homo sapiens, PC-3, Cell Proliferation Assay, PC3, read-out: CPEC50 PC3

Compound	IC50 (PDK1 kinase; PDK1 Kinase Alpha Screen Assay) [µM]	EC50 (PC-3 cells; Cell Proliferation Assay, PC3, read-out: CPEC50 PC3) [µM]	IC50 (PDK1 kinase) [µM]	EC50 (PC-3 cells; [1]) [µM]	EC50 (PC-3 cells; [2]) [µM]
CCN1CCC(Oc2ccc3cnc(Nc4cc(OC)cc(OC)c4)nc3c2)CC1 [Compound 56, (3,5-Dimethoxy-phenyl)-[7-(1-ethyl-piperidin-4-yloxy)-quinazolin-2-yl]-amine]	–	–	< 5	< 5	–
CC(C)N1CCC(Oc2ccc3cnc(Nc4ccc(Cl)cc4)nc3c2)CC1 [Compound 57, (4-Chloro-phenyl)-[7-(1-isopropyl-piperidin-4-yloxy)-quinazolin-2-yl]-amine]	–	–	< 5	< 5	–
CC(C)N1CCC(Oc2ccc3cnc(Nc4ccc(F)cc4)nc3c2)CC1 [Compound 60, (4-Fluoro-phenyl)-[7-(1-isopropyl-piperidin-4-yloxy)-quinazolin-2-yl]-amine]	–	–	< 5	5 to 10	–
CC(C)N1CCC(Oc2ccc3cnc(Nc4ccc(N)c(Cl)c4)nc3c2)CC1 [Compound 62, 2-Chloro-N*4*-[7-(1-isopropyl-piperidin-4-yloxy)-quinazolin-2-yl] benzene-1,4-diamine]	–	–	< 5	5 to 10	–
Nc1cc(C(F)(F)F)c(-c2ccc3cnc(Nc4ccc(S(N)(=O)=O)cc4)nc3c2OC2CCNCC2)cn1 [Compound 69, 4-[7-(6-Amino-4-trifluoromethyl-pyridin-3-yl)-8-(piperidin-4-yloxy)-quinazolin-2-ylamino]-benzenesulfonamide]	–	–	< 5	5 to 10	–
CC(C)N1CCC(Oc2cccc3cnc(Nc4ccc(CC(N)=O)cc4)nc23)CC1 [Compound 74, 2-{4-[8-(1-Isopropyl-piperidin-4-yloxy)-quinazolin-2-ylamino]-phenyl}-acetamide]	–	–	< 5	< 5	–
CC(C)N1CCC(Oc2cccc3cnc(Nc4ccc(NC(=O)N5CCCC5)cc4)nc23)CC1 [Compound 75, Pyrrolidine-1-carboxylic acid {4-[8-(1-isopropyl-piperidin-4-yloxy)-quinazolin-2-ylamino]-phenyl}-amide]	–	–	< 5	< 5	–
CC(C)N1CCC(Oc2cccc3cnc(Nc4cccc(CC(N)=O)c4)nc23)CC1 [Compound 76, 2-{3-[8-(1-Isopropyl-piperidin-4-yloxy)-quinazolin-2-ylamino]-phenyl}-acetamide]	–	–	< 5	< 5	–
CNC(=O)Cc1cccc(NC(=O)Cc2cccc(Nc3ncc4cccc(OC5CCN(C(C)C)CC5)c4n3)c2)c1 [Compound 78, 2-{3-[8-(1-Isopropyl-piperidin-4-yloxy)-quinazolin-2-ylamino]-phenyl}-N-(3-methylcarbamoylmethyl-phenyl)-acetamide]	–	–	< 5	< 5	–
CC(C)NC(=O)Cc1cccc(Nc2ncc3cccc(OC4CCN(C(C)C)CC4)c3n2)c1 [Compound 79, N-Isopropyl-2-{3-[8-(1-isopropyl-piperidin-4-yloxy)-quinazolin-2-ylamino]-phenyl}-acetamide]	–	–	< 5	< 5	–
CC(C)N1CCC(Oc2cccc3cnc(Nc4cccc(N5CCOCC5)c4)nc23)CC1 [Compound 80, [8-(1-Isopropyl-piperidin-4-yloxy)-quinazolin-2-yl]-(3-morpholin-4-yl-phenyl)-amine]	–	–	< 5	5 to 10	–
CNS(=O)(=O)Cc1ccc(Nc2ncc3cccc(OC4CCN(C(C)C)CC4)c3n2)cc1 [Compound 82, C-{4-[8-(1-Isopropyl-piperidin-4-yloxy)-quinazolin-2-ylamino]-phenyl}-N-methyl-methanesulfonamide]	–	–	< 5	< 5	–
CC(C)N1CCC(Oc2cccc3cnc(Nc4ccc(F)cc4)nc23)CC1 [Compound 83, (4-Fluoro-phenyl)-[8-(1-isopropyl-piperidin-4-yloxy)-quinazolin-2-yl]-amine]	–	–	< 5	5 to 10	–
CC(C)N1CCC(Oc2cccc3cnc(Nc4ccc(Cl)cc4)nc23)CC1 [Compound 84]	–	–	< 5	< 5	–

Second part, the compound after the results:

IC50 (PDK1 kinase; PDK1 Kinase Alpha Screen Assay) [µM]	EC50 (PC-3 cells; Cell Proliferation Assay, PC3, read-out: CPEC50 PC3) [µM]	IC50 (PDK1 kinase) [µM]	EC50 (PC-3 cells; [1]) [µM]	EC50 (PC-3 cells; [2]) [µM]	Compound
< 5	< 5	–	–	–	8-(6-(2-(pyrrolidin-1- yl)ethylamino)pyridin-3-yl)-N-(4- (trifluoromethoxy)phenyl)quinazoin- 2-amine [Compound 394]
–	–	< 5	< 5	–	CC(C)N1CCC(Oc2cccc3cnc(Nc4ccc(C(F)(F)F)cc4)nc23)CC1 [Compound 85, [8-(1-Isopropyl-piperidin-4-yloxy)-quinazolin-2-yl]-(4-trifluoromethyl-phenyl)-amine]
< 5	–	–	–	< 5	CC(C)N1CCC(Oc2ccc3cnc(Nc4ccc(C(F)(F)F)cc4)nc3c2)CC1 [Compound 318, 7-(1-isopropylpiperidin-4-yloxy)-N-(4-(trifluoromethyl)phenyl)quinazolin-2-amine]
< 5	–	–	–	< 5	CC(C)N1CCC(Oc2ccc3cnc(Nc4ccc(OC(F)(F)F)cc4)nc3c2)CC1 [Compound 319, 7-(1-isopropylpiperidin-4-yloxy)-N-(4-(trifluoromethoxy)phenyl)quinazolin-2-amine]
< 5	–	–	–	< 5	CC(=O)Nc1ccc(Nc2ncc3ccc(OC4CCN(C(C)C)CC4)cc3n2)cc1Cl [Compound 320, N-(2-chloro-4-(7-(1-isopropylpiperidin-4-yloxy)quinazolin-2-ylamino)phenyl)acetamide]
< 5	–	–	–	5 to 10	COc1cc(S(N)(=O)=O)c(OC)cc1Nc1ncc2ccc(OC3CCNCC3)cc2n1 [Compound 321, 2,5-dimethoxy-4-(7-(piperidin-4-yloxy)quinazolin-2-ylamino)benzenesulfonamide]
< 5	–	–	–	5 to 10	Cc1ccc(Nc2ncc3ccc(OC4CCNCC4)cc3n2)cc1NS(C)(=O)=O [Compound 325]
< 5	–	–	–	5 to 10	CC(C)N1CCC(c2c(O)ccc3cnc(Nc4nc5ccccc5s4)nc23)CC1 [Compound 326, 2-(benzo[d]thiazol-2-ylamino)-8-(1-isopropylpiperidin-4-yl)quinazolin-7-ol]
